Measurements published in PMC4887496, “The Mouthparts Enriched Odorant Binding Protein 11 of the Alfalfa Plant Bug Adelphocoris lineolatus Displays a Preferential Binding Behavior to Host Plant Secondary Metabolites” (Frontiers in Physiology, 2016).

Target: T1, recombinant AlinOBP11 (Adelphocoris lineolatus, UniProt F4Y5P9)
Test: Binding of fluorescent probe 1-NPN to recombinant AlinOBP11 (fluorescence titration, Scatchard plot)
Settings: 2 μM protein in 50 mM Tris-HCl pH 7.4, 1-NPN 1 to 16 μM; read-out: dissociation constant of the AlinOBP11/1-NPN complex

T1 sequence (F4Y5P9 entry or part of it): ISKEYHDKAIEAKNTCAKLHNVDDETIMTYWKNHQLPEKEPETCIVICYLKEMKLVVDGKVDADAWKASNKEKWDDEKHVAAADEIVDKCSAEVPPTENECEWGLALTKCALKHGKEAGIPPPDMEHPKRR

Compound	Kd
c1ccc(Nc2cccc3ccccc23)cc1 [1-NPN, N-phenyl-1-naphthylamine]	5.86 ± 0.47 µM

Target: T1, recombinant AlinOBP11
Test: biochemical
Type: binding
Settings: not given

Compound	IC50	Ki
CCCCCC=O [Hexanal]	> 30 µM	
Cc1cc2c(C(C)C)c(O)c(O)c(C=O)c2c(O)c1-c1c(C)cc2c(C(C)C)c(O)c(O)c(C=O)c2c1O [Gossypol]	4.45 ± 0.34 µM	3.43 ± 0.32 µM
CCCCC(C)=O [2-Hexanone]	> 30 µM	
CCCCCCC=O [Heptanal]	> 30 µM	
CC(=O)c1ccccc1 [Acetophenone]	> 30 µM	
CC(=O)CCC=C(C)C [6-Methyl-5-hepten-2-one]	> 30 µM	
CC1=CC[C@H](C(C)C)C=C1 [α-Phellandrene]	26.2 ± 0.52 µM	20.1 ± 0.41 µM
O=Cc1ccccc1 [Benzaldehyde]	> 30 µM	
CCCCCCO [1-Hexanol]	> 30 µM	
c1ccc2[nH]ccc2c1 [Indole]	> 30 µM	
C=C1CC/C=C(\C)CC[C@@H]2[C@@H]1CC2(C)C [β-Caryophyllene]	> 30 µM	
CC(=O)/C=C/C1=C(C)CCCC1(C)C [β-Ionone]	> 30 µM	
CC/C=C\CCO [cis-3-Hexen-1-ol]	> 30 µM	
CCC/C=C/C=O [trans-2-Hexenal]	> 30 µM	
C=C1CCC2CC1C2(C)C (stereo not drawn) [β-Pinene]	> 30 µM	
CCCC(=O)OCC [Ethyl butyrate]	> 30 µM	
COC(=O)c1ccccc1O [Methyl salicylate]	> 30 µM	

Same assay, conditions: 2 μM protein, 2 μM 1-NPN, 50 mM Tris-HCl pH 7.4, competitor 2 to 30 μM, 25°C; read-out: IC50 (μM) AlinOBP11

IC50	Compound
> 30 µM	CCCCCO [Pentanol]
> 30 µM	CCCCCCCCCOC(C)=O [Nonyl acetate]
19.3 ± 0.93 µM	Oc1cc(O)c2c(c1)O[C@@H](c1ccc(O)c(O)c1)[C@H](O)C2 [(−)-Catechin]
> 30 µM	CCCCCCOC(=O)CCCCC [Hexyl hexanoate]
> 30 µM	Cc1ccc(C=O)cc1C [3,4-Dimethyl-benzaldehyde]
> 30 µM	CCCCCCCCCCC [Undecane]
> 30 µM	CCCC(=O)CC [3-Hexanone]
> 30 µM	CCCCCC(C)=O [2-Heptanone]
> 30 µM	CCCCC=O [Valeraldehyde]
> 30 µM	CCC/C=C/COC(=O)CCC [trans-2-hexenyl butyrate]
> 30 µM	CCCCCCC(C)=O [2-Octanone]
27.2 ± 0.71 µM	C=CC(C)(O)CCC=C(C)CCC=C(C)C (mixture of isomers) [Nerolidol]
> 30 µM	C=C/C(C)=C/CC=C(C)C [E-β-Ocimene]
> 30 µM	CCCCCCOC(=O)CCC [Hexyl butyrate]
> 30 µM	CCCCCCCC=O [Octanal]
> 30 µM	CCCCOC(=O)CCC [Butyl butyrate]
> 30 µM	CC/C=C\CCOC(C)=O [cis-3-hexenyl acetate]
> 30 µM	CCCCCOC(C)=O [Amyl acetate]
> 30 µM	CCCCCCCCC=O [Nonanal]
> 30 µM	CCCCC(C)O (stereo not shown) [2-Hexanol]
> 30 µM	C=CC(=C)CCC=C(C)C [Myrcene]

Compound	IC50
C[C@@H]1O[C@@H](OC[C@H]2O[C@@H](Oc3c(-c4ccc(O)c(O)c4)oc4cc(O)cc(O)c4c3=O)[C@H](O)[C@@H](O)[C@@H]2O)[C@H](O)[C@H](O)[C@H]1O.O [Rutin hydrate]	9.89 ± 1.61 µM
C=C(C)[C@H]1CC=C(C)CC1 [Limonene]	> 30 µM
C=CC(=C)CC/C=C(\C)CCC=C(C)C [trans-β-Farnesene]	> 30 µM
C/C1=C\CC/C(C)=C/CC(C)(C)/C=C/C1 [α-Humulene]	> 30 µM
(+)-α-Pinene	> 30 µM
CC(C)=CCC/C(C)=C/CC/C(C)=C/CO [trans,trans-Farnesol]	25.2 ± 2.36 µM

Same assay, conditions: […]; 2 μM protein, 2 μM 1-NPN, pH 7.4; read-out: Ki (μM) AlinOBP11

Ki	Compound
15.3 ± 0.7 µM	Oc1cc(O)c2c(c1)O[C@@H](c1ccc(O)c(O)c1)[C@H](O)C2 [(−)-Catechin]

Same assay, conditions: calculated from IC50: Ki = [IC50]/(1+[1-NPN]/K1-NPN); 2 μM protein, 2 μM 1-NPN, pH 7.4; read-out: Ki (μM) AlinOBP11

Compound	Ki
C[C@@H]1O[C@@H](OC[C@H]2O[C@@H](Oc3c(-c4ccc(O)c(O)c4)oc4cc(O)cc(O)c4c3=O)[C@H](O)[C@@H](O)[C@@H]2O)[C@H](O)[C@H](O)[C@H]1O.O [Rutin hydrate]	7.78 ± 1.23 µM
C=CC(C)(O)CCC=C(C)CCC=C(C)C (mixture of isomers) [Nerolidol]	20.8 ± 0.55 µM
CC(C)=CCC/C(C)=C/CC/C(C)=C/CO [trans,trans-Farnesol]	19.3 ± 1.78 µM

Test system: AlucOBP36
Test: not given
Parameters: method as in Hua et al., 2012
Settings: antennae expressed AlucOBP36; ref Hua et al., 2012; cited from earlier work

Compound	binding abilities to AlucOBP36 (in words)
C[C@@H]1O[C@@H](OC[C@H]2O[C@@H](Oc3c(-c4ccc(O)c(O)c4)oc4cc(O)cc(O)c4c3=O)[C@H](O)[C@@H](O)[C@@H]2O)[C@H](O)[C@H](O)[C@H]1O.O [Rutin hydrate]	better binding abilities
